“Also recorded” adds a separate entry of the source. No end group written: not given here.

The results in this text go back to patent US5905187A (priority 1997, dated 1999).

Some test systems named below: plant pathogenic fungi; Sclerotinia trifoliorum; Sclerotinia sclerotiorum; Fusarium moniliforme; Aspergillus flavus; Alternaria longipes; Fusarium graminearum.
Format in all cases: cell-based

“RSGRGECRRQCLRRHEGQPWETQECMRRCRRRGG (cysteine pairing not given here) [CMIII]”: the “CMIII activity in the presence of plant cell extracts” value in the test with plant pathogenic fungi is “reduced substantially”. Also, in the test on Sclerotinia trifoliorum, the “concentrations at which inhibition of S. trifoliorum was not observed” value is “below 15.2 micromolar”, the “inhibition of Sclerotinia isolates (S. trifoliorum)” value is listed as “inhibited strongly” and the “inhibition of Sclerotinia trifoliorum” value is reported as “inhibitory activity”. In addition, in the test with Sclerotinia sclerotiorum, the “concentrations at which inhibition of S. sclerotiorum was not observed” value is “below 30.4 micromolar”, the “inhibition of Sclerotinia isolates (S. sclerotiorum)” value is listed as “inhibited strongly” and the “inhibition of Sclerotinia sclerotiorum” value was “inhibitory activity”. In the test with Fusarium moniliforme, the “concentration down to which Fusarium moniliforme was noticeably inhibited” value was 3.8 µM and the “inhibition of Fusarium moniliforme” value was “slightly inhibited; also recorded: not completely inhibited”. Also, the “inhibition of Aspergillus flavus” value in the test on Aspergillus flavus is recorded as “slightly inhibited; also recorded: slight inhibition”. Besides, the “effect on A. longipes” value in the test with Alternaria longipes (at 3 μM, yet another study) was “not affected”. Further, in the test with Alternaria longipes (other studies, most sensitive of the fungi), the “concentration showing noticeable inhibition of Alternaria longipes” value stood at 1.9 µM. The “inhibition of Fusarium graminearum” value in the test with Fusarium graminearum (at a concentration of 112 μg/mL) is “inhibitory activity”. For the same sequence, in the test on Fusarium graminearum (other studies), the “concentration down to which Fusarium graminearum was noticeably inhibited” value was found to be 3.8 µM.
